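These data come from cells grown in 96-well plates and exposed to compound for 48 hours at five concentrations. GI50 is the concentration that inhibits growth by half.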 Activity calls are given as the source filed them. Rule as the data show it: active = GI50 up to about 1.1 µM and inactive = higher.
Columns and labels:
Test in all cases: inhibition of tumour cell growth, NCI panel, 48 h
COLO 205 = system: COLO 205
DMS-114 = system: DMS-114
HL-60 = system: HL-60
M19-MEL = system: M19-MEL
MOLT-4 = system: MOLT-4
Malme-3M = system: Malme-3M
NCI-H23 = system: NCI-H23
NCI-H522 = system: NCI-H522
OVCAR-4 = system: OVCAR-4
OVCAR-5 = system: OVCAR-5
RXF 393 = system: RXF 393
SK-MEL-28 = system: SK-MEL-28
SN12C = system: SN12C
SNB-75 = system: SNB-75
SK-OV-3 = system: SK-OV-3
BT-549 = system: BT-549
DU-145 = system: DU-145
Hs-578T = system: Hs-578T
T47D = system: T47D

| Structure (SMILES) | GI50 (COLO 205) | GI50 (DMS-114) | GI50 (HL-60) | GI50 (M19-MEL) | GI50 (MOLT-4) | GI50 (Malme-3M) | GI50 (NCI-H23) | GI50 (NCI-H522) | GI50 (OVCAR-4) | GI50 (OVCAR-5) | GI50 (RXF 393) | GI50 (SK-MEL-28) | GI50 (SN12C) | GI50 (SNB-75) | GI50 (SK-OV-3) | GI50 (BT-549) | GI50 (DU-145) | GI50 (Hs-578T) | GI50 (T47D) |
| --- | --- | --- | --- | --- | --- | --- | --- | --- | --- | --- | --- | --- | --- | --- | --- | --- | --- | --- | --- |
| O=C1OC(c2ccccc2)=N/C1=C\c1cc(Cl)ccc1Cl | > 100 µM (inactive) | 49.8 µM (inactive) | 6.64 µM (inactive) | > 100 µM (inactive) | 23 µM (inactive) | > 100 µM (inactive) | > 100 µM (inactive) | > 100 µM (inactive) | > 100 µM (inactive) | > 100 µM (inactive) | > 100 µM (inactive) | > 100 µM (inactive) | 80.2 µM (inactive) | 3.48 µM (inactive) |  |  |  |  |  |
| COc1cc(C2[C@H]3C(=O)N(c4ccc(Cc5ccc(N6C(=O)[C@@H]7ON(c8ccccc8)C(c8cc(OC)c(OC)c(OC)c8)[C@@H]7C6=O)cc5)cc4)C(=O)[C@H]3ON2c2ccccc2)cc(OC)c1OC (stereo partly specified) | > 100 µM (inactive) | > 100 µM (inactive) | > 100 µM (inactive) | > 100 µM (inactive) | > 100 µM (inactive) | 46.3 µM (inactive) | > 100 µM (inactive) | > 100 µM (inactive) | > 100 µM (inactive) | > 100 µM (inactive) | > 100 µM (inactive) | > 100 µM (inactive) | > 100 µM (inactive) | > 100 µM (inactive) | > 100 µM (inactive) |  |  |  |  |
| CCOC(=O)C(C(=O)OCC)=C1NC2(c3ccccc3Nc3ccc(C)cc32)C(C#N)S1 (stereo unspecified) | 4.04 µM (inactive) |  | 13.1 µM (inactive) |  | 2.4 µM (inactive) | 15 µM (inactive) | 3.56 µM (inactive) | 11.2 µM (inactive) | 5.66 µM (inactive) | 11.3 µM (inactive) | 6.68 µM (inactive) | 18.2 µM (inactive) | 3.24 µM (inactive) | 8.55 µM (inactive) | 13.4 µM (inactive) | 14 µM (inactive) | 11.3 µM (inactive) | 14.2 µM (inactive) | 4.39 µM (inactive) |
| Cc1ccc(OCC2OC(n3cnc4c(Cl)nc(Nc5cc(Cl)cc(Cl)c5)nc43)CC2Oc2ccc(C)cc2)cc1 (stereo unspecified) | > 100 µM (inactive) |  | > 100 µM (inactive) |  | > 100 µM (inactive) | > 100 µM (inactive) | > 100 µM (inactive) | > 100 µM (inactive) | 10.4 µM (inactive) | > 100 µM (inactive) | > 100 µM (inactive) | > 100 µM (inactive) | > 100 µM (inactive) | 17.4 µM (inactive) | > 100 µM (inactive) | > 100 µM (inactive) | > 100 µM (inactive) | > 100 µM (inactive) | 48.9 µM (inactive) |
| C1CNOCCCONCCCNOCCCONC1 | > 100 µM (inactive) |  | 51.8 µM (inactive) |  | > 100 µM (inactive) | 30.1 µM (inactive) | > 100 µM (inactive) | 67.6 µM (inactive) | 70.3 µM (inactive) | > 100 µM (inactive) | 20.2 µM (inactive) | > 100 µM (inactive) | 77.4 µM (inactive) | > 100 µM (inactive) | 37.1 µM (inactive) | 69.5 µM (inactive) | 58.9 µM (inactive) | 59.3 µM (inactive) | 11.3 µM (inactive) |
| CC(C)CCC[C@@H](C)[C@H]1CC[C@H]2[C@@H]3CC[C@H]4C[C@H](N)CC[C@]4(C)[C@H]3CC[C@]12C | 21 µM (inactive) |  | 3.34 µM (inactive) |  | 11.3 µM (inactive) | 17.2 µM (inactive) | 26.1 µM (inactive) | 21 µM (inactive) | 21.9 µM (inactive) | 15.4 µM (inactive) | 22.2 µM (inactive) | 28.3 µM (inactive) | 22.9 µM (inactive) | 18.5 µM (inactive) | 22.6 µM (inactive) | 23.1 µM (inactive) | 16.4 µM (inactive) | 20 µM (inactive) | 34.4 µM (inactive) |
| O=C(O)CS(=O)(=O)C(c1ccccc1)c1ccccc1 | > 100 µM (inactive) |  | > 100 µM (inactive) |  | > 100 µM (inactive) | > 100 µM (inactive) | > 100 µM (inactive) | > 100 µM (inactive) | > 100 µM (inactive) | > 100 µM (inactive) | > 100 µM (inactive) | > 100 µM (inactive) | > 100 µM (inactive) | > 100 µM (inactive) | > 100 µM (inactive) | > 100 µM (inactive) | > 100 µM (inactive) | > 100 µM (inactive) | > 100 µM (inactive) |
| COc1ccnc2c1C(=O)c1nc3ccccc3c3ccnc-2c13 | 0.0796 µM (active) |  | 0.06 µM (active) |  | 1.42 µM (inactive) | 0.262 µM (active) | 0.271 µM (active) | 0.0375 µM (active) | 0.307 µM (active) | 0.52 µM (active) | 0.231 µM (active) | 0.305 µM (active) | 0.112 µM (active) | 0.04 µM (active) | 0.167 µM (active) | 0.397 µM (active) | 0.0479 µM (active) | 1.55 µM (inactive) | 0.291 µM (active) |
